Measured values from patent US10131644B2, “Aryl sultam derivatives as RORc modulators” (Genentech, Inc., priority 2014, dated 2018).

Each molecule was assayed against T1, RORc (Homo sapiens, UniProt P51449) (assay: In vitro RORc ligand binding assay (25-[3H]hydroxycholesterol displacement)). Settings: IC50, IC50 values for RORc; unit inferred.
T1 sequence (P51449 269-508 limits assumed): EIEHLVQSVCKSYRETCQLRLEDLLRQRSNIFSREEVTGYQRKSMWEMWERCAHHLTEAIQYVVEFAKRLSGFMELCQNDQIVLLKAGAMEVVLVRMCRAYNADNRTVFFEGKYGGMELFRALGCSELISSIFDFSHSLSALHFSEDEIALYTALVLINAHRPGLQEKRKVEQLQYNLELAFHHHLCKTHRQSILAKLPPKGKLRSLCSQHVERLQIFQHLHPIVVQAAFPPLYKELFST

| SMILES | IC50 |
| --- | --- |
| CC(=O)N1CCC(O)(c2ccc(CN3[C@@H](C)CCC(c4ccccc4)S3(=O)=O)cc2)CC1 (stereo partly drawn) [Compound 49, 1-{4-Hydroxy-4-[4-((S)-3-methyl-1,1-dioxo-6-phenyl-[1,2]thiazinan-2-ylmethyl)-phenyl]-piperidin-1-yl}-ethanone] | 120 nM |
| CC(=O)NCCNC(=O)C1(c2ccc(CN3[C@@H](C)CC[C@H](c4ccccc4)S3(=O)=O)c(F)c2)CCOCC1 [Compound 50, N-(2-acetamidoethyl)-4-[3-fluoro-4-[[(3S,6R)-3-methyl-1,1-dioxo-6-phenyl-thiazinan-2-yl]methyl]phenyl]tetrahydropyran-4-carboxamide] | 250 nM |
| CCNC(=O)C1(c2ccc(CN3[C@@H](C)CC[C@H](c4ccccc4)S3(=O)=O)c(F)c2)CCOCC1 [Compound 51, N-ethyl-4-[3-fluoro-4-[[(3S,6R)-3-methyl-1,1-dioxo-6-phenyl-thiazinan-2-yl]methyl]phenyl]tetrahydropyran-4-carboxamide] | 147 nM |
| C[C@H]1CC[C@H](c2ccccc2)S(=O)(=O)N1Cc1ccc(C2(C(=O)NCCN)CCOCC2)cc1F [Compound 52, N-(2-aminoethyl)-4-[3-fluoro-4-[[(3S,6R)-3-methyl-1,1-dioxo-6-phenyl-thiazinan-2-yl]methyl]phenyl]tetrahydropyran-4-carboxamide] | 480 nM |
| C[C@H]1CC[C@H](c2ccccc2)S(=O)(=O)N1Cc1ccc(C2(C(=O)NCCN(C)C)CCOCC2)cc1F [Compound 53, N-[2-(dimethylamino)ethyl]-4-[3-fluoro-4-[[(3S,6R)-3-methyl-1,1-dioxo-6-phenyl-thiazinan-2-yl]methyl]phenyl]tetrahydropyran-4-carboxamide] | 845 nM |
| C[C@H]1CC[C@H](c2ccccc2)S(=O)(=O)N1Cc1ccc(C2(C(=O)NCCCO)CCOCC2)cc1F [Compound 54, 4-[3-fluoro-4-[[(3S,6R)-3-methyl-1,1-dioxo-6-phenyl-thiazinan-2-yl]methyl]phenyl]-N-(3-hydroxypropyl)tetrahydropyran-4-carboxamide] | 79.8 nM |
| C[C@H]1CC[C@H](c2ccccc2)S(=O)(=O)N1Cc1ccc(C2(C(=O)NCCCN)CCOCC2)cc1F [Compound 55, N-(3-aminopropyl)-4-[3-fluoro-4-[[(3S,6R)-3-methyl-1,1-dioxo-6-phenyl-thiazinan-2-yl]methyl]phenyl]tetrahydropyran-4-carboxamide] | 913 nM |
| C[C@H]1CC[C@H](c2ccccc2)S(=O)(=O)N1Cc1ccc(C2(C(=O)NCC(=O)N(C)C)CCOCC2)cc1F [Compound 56, N-[2-(dimethylamino)-2-oxo-ethyl]-4-[3-fluoro-4-[[(3S,6R)-3-methyl-1,1-dioxo-6-phenyl-thiazinan-2-yl]methyl]phenyl]tetrahydropyran-4-carboxamide] | 403 nM |
| C[C@H]1CC[C@H](c2ccccc2)S(=O)(=O)N1Cc1ccc(C2(C(=O)NCC#N)CCOCC2)cc1F [Compound 57, N-(cyanomethyl)-4-[3-fluoro-4-[[(3S,6R)-3-methyl-1,1-dioxo-6-phenyl-thiazinan-2-yl]methyl]phenyl]tetrahydropyran-4-carboxamide] | 80.2 nM |
| C[C@H]1CC[C@H](c2ccccc2)S(=O)(=O)N1Cc1ccc(C2(C(=O)NCC(=O)O)CCOCC2)cc1F [Compound 58, 2-[[4-[3-fluoro-4-[[(3S,6R)-3-methyl-1,1-dioxo-6-phenyl-thiazinan-2-yl]methyl]phenyl]tetrahydropyran-4-carbonyl]amino]acetic acid] | 228 nM |
| C[C@H]1CC[C@H](c2ccccc2)S(=O)(=O)N1Cc1ccc(C2(C(=O)NCC(N)=O)CCOCC2)cc1F [Compound 59, N-(2-amino-2-oxo-ethyl)-4-[3-fluoro-4-[[(3S,6R)-3-methyl-1,1-dioxo-6-phenyl-thiazinan-2-yl]methyl]phenyl]tetrahydropyran-4-carboxamide] | 268 nM |
| C[C@H]1CC[C@H](c2ccccc2)S(=O)(=O)N1Cc1ccc(C2(C(=O)NCCS(C)(=O)=O)CCOCC2)cc1F [Compound 60, 4-[3-fluoro-4-[[(3S,6R)-3-methyl-1,1-dioxo-6-phenyl-thiazinan-2-yl]methyl]phenyl]-N-(2-methylsulfonylethyl)tetrahydropyran-4-carboxamide] | 111 nM |
| C[C@H]1CC[C@H](c2ccccc2)S(=O)(=O)N1Cc1ccc(C2(C#N)CCOCC2)cc1F [Compound 61, 4-[3-fluoro-4-[[(3S,6R)-3-methyl-1,1-dioxo-6-phenyl-thiazinan-2-yl]methyl]phenyl]tetrahydropyran-4-carbonitrile] | 186 nM |
| C[C@H]1CC[C@H](c2ccccc2)S(=O)(=O)N1Cc1ccc(C2(C(=O)NCC(C)(C)O)CCOCC2)cc1F [Compound 62, 4-[3-fluoro-4-[[(3S,6R)-3-methyl-1,1-dioxo-6-phenyl-thiazinan-2-yl]methyl]phenyl]-N-(2-hydroxy-2-methyl-propyl)tetrahydropyran-4-carboxamide] | 149 nM |
| C[C@H](O)CNC(=O)C1(c2ccc(CN3[C@@H](C)CC[C@H](c4ccccc4)S3(=O)=O)c(F)c2)CCOCC1 [Compound 63, 4-[3-fluoro-4-[[(3S,6R)-3-methyl-1,1-dioxo-6-phenyl-thiazinan-2-yl]methyl]phenyl]-N-[(2S)-2-hydroxypropyl]tetrahydropyran-4-carboxamide] | 36 nM |
| COCCNC(=O)C1(c2ccc(CN3[C@@H](C)CC[C@H](c4ccccc4)S3(=O)=O)c(F)c2)CCOCC1 [Compound 64, 4-[3-fluoro-4-[[(3S,6R)-3-methyl-1,1-dioxo-6-phenyl-thiazinan-2-yl]methyl]phenyl]-N-(2-methoxyethyl)tetrahydropyran-4-carboxamide] | 89 nM |
| C[C@H]1CC[C@H](c2ccccc2)S(=O)(=O)N1Cc1ccc(C2(C(=O)NCCC#N)CCOCC2)cc1F [Compound 65, N-(2-cyanoethyl)-4-[3-fluoro-4-[[(3S,6R)-3-methyl-1,1-dioxo-6-phenyl-thiazinan-2-yl]methyl]phenyl]tetrahydropyran-4-carboxamide] | 52.9 nM |
| C[C@@H](O)CNC(=O)C1(c2ccc(CN3[C@@H](C)CC[C@H](c4ccccc4)S3(=O)=O)c(F)c2)CCOCC1 [Compound 66] | 47.4 nM |
| C[C@H]1CC[C@H](c2ccccc2)S(=O)(=O)N1Cc1ccc(C2(C(N)=O)CCOCC2)cc1F [Compound 67, 4-[3-fluoro-4-[[(3S,6R)-3-methyl-1,1-dioxo-6-phenyl-thiazinan-2-yl]methyl]phenyl]tetrahydropyran-4-carboxamide] | 18 nM |
| C[C@H]1CC[C@H](c2ccccc2)S(=O)(=O)N1Cc1ccc(C2(CO)CCOCC2)cc1F [Compound 68, [4-[3-fluoro-4-[[(3S,6R)-3-methyl-1,1-dioxo-6-phenyl-thiazinan-2-yl]methyl]phenyl]tetrahydropyran-4-yl]methanol] | 38.5 nM |
| C[C@H]1CC[C@H](c2ccccc2)S(=O)(=O)N1Cc1ccc(C2(O)CCOCC2)cc1F [Compound 69, 4-[3-fluoro-4-[[(3S,6R)-3-methyl-1,1-dioxo-6-phenyl-thiazinan-2-yl]methyl]phenyl]tetrahydropyran-4-ol] | 93 nM |
| CC(=O)NCC1(c2ccc(CN3[C@@H](C)CC[C@H](c4ccccc4)S3(=O)=O)c(F)c2)CCOCC1 [Compound 70, N-[[4-[3-fluoro-4-[[(3S,6R)-3-methyl-1,1-dioxo-6-phenyl-thiazinan-2-yl]methyl]phenyl]tetrahydropyran-4-yl]methyl]acetamide] | 148 nM |
| C[C@H]1CC[C@H](c2ccccc2)S(=O)(=O)N1Cc1ccc(C2(CNS(C)(=O)=O)CCOCC2)cc1F [Compound 71, N-[[4-[3-fluoro-4-[[(3S,6R)-3-methyl-1,1-dioxo-6-phenyl-thiazinan-2-yl]methyl]phenyl]tetrahydropyran-4-yl]methyl]methanesulfonamide] | 76.7 nM |
| C[C@H]1CC[C@H](c2ccccc2)S(=O)(=O)N1Cc1ccc(C2(/C=C/C#N)CCOCC2)cc1F [Compound 72, (E)-3-[4-[3-fluoro-4-[[(3S,6R)-3-methyl-1,1-dioxo-6-phenyl-thiazinan-2-yl]methyl]phenyl]tetrahydropyran-4-yl]prop-2-enenitrile] | 8.7 nM |
| COC(=O)NCC1(c2ccc(CN3[C@@H](C)CC[C@H](c4ccccc4)S3(=O)=O)c(F)c2)CCOCC1 [Compound 73, methyl N-[[4-[3-fluoro-4-[[(3S,6R)-3-methyl-1,1-dioxo-6-phenyl-thiazinan-2-yl]methyl]phenyl]tetrahydropyran-4-yl]methyl]carbamate] | 53.2 nM |
| C[C@H]1CC[C@H](c2ccccc2)S(=O)(=O)N1Cc1ccc(C2(CNC(=O)OC(C)(C)C)CCOCC2)cc1F [Compound 74, tert-butyl N-[[4-[3-fluoro-4-[[(3S,6R)-3-methyl-1,1-dioxo-6-phenyl-thiazinan-2-yl]methyl]phenyl]tetrahydropyran-4-yl]methyl]carbamate] | 141 nM |
| C[C@H]1CC[C@H](c2ccccc2)S(=O)(=O)N1Cc1ccc(C2(CN)CCOCC2)cc1F [Compound 75, [4-[3-fluoro-4-[[(3S,6R)-3-methyl-1,1-dioxo-6-phenyl-thiazinan-2-yl]methyl]phenyl]tetrahydropyran-4-yl]methanamine] | 639 nM |
| C[C@H]1CC[C@H](c2ccccc2)S(=O)(=O)N1Cc1ccc(C2(C(C)(C)O)CCOCC2)cc1F [Compound 76, 2-[4-[3-fluoro-4-[[(3S,6R)-3-methyl-1,1-dioxo-6-phenyl-thiazinan-2-yl]methyl]phenyl]tetrahydropyran-4-yl]propan-2-ol] | 32.1 nM |
| C[C@H]1CC[C@H](c2ccccc2)S(=O)(=O)N1Cc1ccc(C2(CC#N)CCOCC2)cc1F [Compound 77, 2-[4-[3-fluoro-4-[[(3S,6R)-3-methyl-1,1-dioxo-6-phenyl-thiazinan-2-yl]methyl]phenyl]tetrahydropyran-4-yl]acetonitrile] | 31.2 nM |
